Assay results as given in ChEMBL document CHEMBL1147879, “Synthesis of soluble multivalent glycoconjugates that target the Hc region of botulinum neurotoxin A” (Bioorg Med Chem Lett, 2007).
Active and inactive are the calls of the source. The calls are words filed in the database; no cut-off is given here.

Molecular target: Synaptosomal-associated protein 25 (Rattus norvegicus) (UniProt P60881)
Assay: Inhibition of BoNT/A-mediated SNAP25 cleavage in rat spinal card cells after 24 hrs by Western blot analysis
Format: cell-based

Synaptosomal-associated protein 25 (Rattus norvegicus), sequence (P60881 whole entry, looked up): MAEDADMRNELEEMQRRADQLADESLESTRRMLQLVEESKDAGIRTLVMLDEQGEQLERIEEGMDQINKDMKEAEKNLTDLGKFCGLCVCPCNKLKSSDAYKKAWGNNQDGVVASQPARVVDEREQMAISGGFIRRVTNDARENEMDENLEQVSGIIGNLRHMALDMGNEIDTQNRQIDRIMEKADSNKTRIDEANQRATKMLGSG

**Q.** For `CC(=O)N[C@@H]1[C@@H]([C@@H](C)C(O)CCO)O[C@](SCC(=O)NCCOCCOCCOCCn2cc(CNC(=O)c3cc(NC(=O)CN)cc(C(=O)NCc4cn(CCOCCOCCOCCNC(=O)CS[C@]5(C(=O)O)C[C@H](O)[C@@H](NC(C)=O)[C@H]([C@H](C)C(O)CCO)O5)nn4)c3)nn2)(C(=O)O)C[C@H]1O` (some centres not stated), which Activity is on record?
**A.** The Activity was “Active”.

**Q.** How did the Activity turn out when `CC(=O)N[C@@H]1[C@@H]([C@@H](C)C(O)CCO)O[C@](SCC(=O)NCCOCCOCCOCCn2cc(CNC(=O)c3cc(NC(=O)CNC(=O)c4cc(NC(=O)CN)cc(C(=O)NCC(=N)Nc5cc(C(=O)NCc6cn(CCOCCOCCOCCNC(=O)CS[C@@]7(C(=O)O)C[C@@H](O)[C@H](NC(C)=O)[C@@H]([C@@H](C)C(O)CCO)O7)nn6)cc(C(=O)NCc6cn(CCOCCOCCOCCNC(=O)CS[C@@]7(C(=O)O)C[C@@H](O)[C@H](NC(C)=O)[C@@H]([C@@H](C)C(O)CCO)O7)nn6)c5)c4)cc(C(=O)NCc4cn(CCOCCOCCOCCNC(=O)CS[C@]5(C(=O)O)C[C@H](O)[C@@H](NC(C)=O)[C@H]([C@H](C)C(O)CCO)O5)nn4)c3)nn2)(C(=O)O)C[C@H]1O` (some centres not stated) was run?
**A.** Its Activity is “Active”.
